Measurements as given in ChEMBL document CHEMBL1138369, “Novel nucleotide triphosphates as potent P2Y2 agonists” (Bioorg Med Chem Lett, 2007).

Legend:
Format in all cases: functional
P2Y purinoceptor 2 = P2Y purinoceptor 2 (Homo sapiens, UniProt P41231); assay: Agonist activity at human P2Y2 receptor expressed in human 1321N1 by FLIPR assay
P2Y purinoceptor 4 = P2Y purinoceptor 4 (Homo sapiens, UniProt P51582); assay: Agonist activity at human cloned P2Y4 receptor expressed in human 1321N1 by FLIPR assay
P2Y purinoceptor 4, sequence (P51582 whole entry): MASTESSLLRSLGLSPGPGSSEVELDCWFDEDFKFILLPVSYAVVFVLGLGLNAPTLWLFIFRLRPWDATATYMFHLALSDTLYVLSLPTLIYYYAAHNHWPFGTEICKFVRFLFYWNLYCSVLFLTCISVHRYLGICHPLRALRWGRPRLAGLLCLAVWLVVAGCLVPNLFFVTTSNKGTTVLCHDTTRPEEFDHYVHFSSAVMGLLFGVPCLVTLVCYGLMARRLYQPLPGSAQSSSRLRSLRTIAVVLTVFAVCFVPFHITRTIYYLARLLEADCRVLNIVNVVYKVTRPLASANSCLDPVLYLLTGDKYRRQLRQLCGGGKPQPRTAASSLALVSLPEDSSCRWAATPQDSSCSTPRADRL

P2Y purinoceptor 1 = P2Y purinoceptor 1 (Homo sapiens, UniProt P47900); assay: Agonist activity at human cloned P2Y1 receptor expressed in human 1321N1 by FLIPR assay
P2Y purinoceptor 1, sequence (P47900 whole entry): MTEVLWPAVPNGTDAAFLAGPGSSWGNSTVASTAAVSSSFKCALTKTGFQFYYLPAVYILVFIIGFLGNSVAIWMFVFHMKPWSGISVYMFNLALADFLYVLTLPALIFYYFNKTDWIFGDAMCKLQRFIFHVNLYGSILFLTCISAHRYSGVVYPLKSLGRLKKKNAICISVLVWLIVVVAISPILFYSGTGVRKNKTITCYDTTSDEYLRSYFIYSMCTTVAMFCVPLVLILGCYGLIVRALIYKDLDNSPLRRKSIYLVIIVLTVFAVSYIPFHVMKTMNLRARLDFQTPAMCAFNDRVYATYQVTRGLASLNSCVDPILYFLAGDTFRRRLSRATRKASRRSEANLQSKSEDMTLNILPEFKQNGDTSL

P2Y purinoceptor 6 = P2Y purinoceptor 6 (Homo sapiens, UniProt Q15077); assay: Agonist activity at human cloned P2Y6 receptor expressed in human 1321N1 by FLIPR assay
P2Y purinoceptor 6, sequence (Q15077 whole entry): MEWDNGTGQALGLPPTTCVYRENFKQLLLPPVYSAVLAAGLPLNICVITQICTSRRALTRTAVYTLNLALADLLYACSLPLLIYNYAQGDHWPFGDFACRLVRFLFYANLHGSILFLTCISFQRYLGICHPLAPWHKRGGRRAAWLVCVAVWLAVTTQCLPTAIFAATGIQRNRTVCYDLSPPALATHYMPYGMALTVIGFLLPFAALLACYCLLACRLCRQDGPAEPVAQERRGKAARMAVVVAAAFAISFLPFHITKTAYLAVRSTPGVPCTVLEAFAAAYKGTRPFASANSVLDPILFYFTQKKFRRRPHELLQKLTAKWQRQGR

P2Y purinoceptor 2, sequence (P41231 whole entry): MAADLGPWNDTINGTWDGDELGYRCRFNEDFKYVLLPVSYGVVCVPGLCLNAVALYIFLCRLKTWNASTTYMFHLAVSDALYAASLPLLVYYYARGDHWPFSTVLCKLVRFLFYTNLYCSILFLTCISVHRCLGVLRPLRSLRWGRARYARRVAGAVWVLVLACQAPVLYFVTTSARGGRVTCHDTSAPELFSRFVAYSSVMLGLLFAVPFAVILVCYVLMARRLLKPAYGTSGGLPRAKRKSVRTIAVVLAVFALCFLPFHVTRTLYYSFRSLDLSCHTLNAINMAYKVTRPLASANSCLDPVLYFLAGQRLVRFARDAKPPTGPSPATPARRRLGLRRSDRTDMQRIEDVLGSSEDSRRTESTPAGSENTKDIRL

SMILES	EC50 (P2Y purinoceptor 2) [nM]	EC50 (P2Y purinoceptor 4) [nM]	EC50 (P2Y purinoceptor 1) [nM]	EC50 (P2Y purinoceptor 6) [nM]
COc1cc2ccn([C@@H]3O[C@H](COP(=O)(O)OP(=O)(O)OP(=O)(O)O)[C@@H](O)[C@H]3O)c(=O)c2cc1F	6			
CS(=O)(=O)c1ccc2ccn([C@@H]3O[C@H](COP(=O)(O)OP(=O)(O)OP(=O)(O)O)[C@@H](O)[C@H]3O)c(=O)c2c1	650			
CN(C)c1cc2ccn([C@@H]3O[C@H](COP(=O)(O)OP(=O)(O)OP(=O)(O)O)[C@@H](O)[C@H]3O)c(=O)c2cc1F	4			
O=c1c2c(ccn1[C@@H]1O[C@H](COP(=O)(O)OP(=O)(O)OP(=O)(O)O)[C@@H](O)[C@H]1O)CCCC2	55			
O=c1c2ccsc2ccn1[C@@H]1O[C@H](COP(=O)(O)OP(=O)(O)OP(=O)(O)O)[C@@H](O)[C@H]1O	30			
N#Cc1ccc2c(=O)n([C@@H]3O[C@H](COP(=O)(O)OP(=O)(O)OP(=O)(O)O)[C@@H](O)[C@H]3O)ccc2c1	88			
O=c1c2cc(Cl)ccc2ccn1[C@@H]1O[C@H](COP(=O)(O)OP(=O)(O)OP(=O)(O)O)[C@@H](O)[C@H]1O	10	20000	> 20000	> 20000
N#Cc1ccc2ccn([C@@H]3O[C@H](COP(=O)(O)OP(=O)(O)OP(=O)(O)O)[C@@H](O)[C@H]3O)c(=O)c2c1	12			
CSc1ccc2ccn([C@@H]3O[C@H](COP(=O)(O)OP(=O)(O)OP(=O)(O)O)[C@@H](O)[C@H]3O)c(=O)c2c1	140			
O=c1c2occc2ccn1[C@@H]1O[C@H](COP(=O)(O)OP(=O)(O)OP(=O)(O)O)[C@@H](O)[C@H]1O	221			
Cc1cn([C@@H]2O[C@H](COP(=O)(O)OP(=O)(O)OP(=O)(O)O)[C@@H](O)[C@H]2O)c(=O)c2ccccc12	17500			
Cc1ccc2c(=O)n([C@@H]3O[C@H](COP(=O)(O)OP(=O)(O)OP(=O)(O)O)[C@@H](O)[C@H]3O)ccc2c1	35			
Cc1ccc2ccn([C@@H]3O[C@H](COP(=O)(O)OP(=O)(O)OP(=O)(O)O)[C@@H](O)[C@H]3O)c(=O)c2c1	148			
O=c1c2ccc(F)cc2ccn1[C@@H]1O[C@H](COP(=O)(O)OP(=O)(O)OP(=O)(O)O)[C@@H](O)[C@H]1O	77			
O=c1c2ccc(Cl)cc2ccn1[C@@H]1O[C@H](COP(=O)(O)OP(=O)(O)OP(=O)(O)O)[C@@H](O)[C@H]1O	541			
Cc1cccc2ccn([C@@H]3O[C@H](COP(=O)(O)OP(=O)(O)OP(=O)(O)O)[C@@H](O)[C@H]3O)c(=O)c12	85			
O=c1c2cc(F)c(F)cc2ccn1[C@@H]1O[C@H](COP(=O)(O)OP(=O)(O)OP(=O)(O)O)[C@@H](O)[C@H]1O	16	> 20000	> 20000	> 20000
O=c1c2ccccc2ccn1[C@@H]1O[C@H](COP(=O)(O)OP(=O)(O)OP(=O)(O)O)[C@@H](O)[C@H]1O	31	7040	> 20000	> 20000
O=c1c2ccoc2ccn1[C@@H]1O[C@H](COP(=O)(O)OP(=O)(O)OP(=O)(O)O)[C@@H](O)[C@H]1O	68			
Cc1cccc2c(=O)n([C@@H]3O[C@H](COP(=O)(O)OP(=O)(O)OP(=O)(O)O)[C@@H](O)[C@H]3O)ccc12	557			
O=c1c2cc(Cl)c(Cl)cc2ccn1[C@@H]1O[C@H](COP(=O)(O)OP(=O)(O)OP(=O)(O)O)[C@@H](O)[C@H]1O	13			
O=c1c2cc(F)ccc2ccn1[C@@H]1O[C@H](COP(=O)(O)OP(=O)(O)OP(=O)(O)O)[C@@H](O)[C@H]1O	5	3580	> 20000	> 20000
COc1ccc2ccn([C@@H]3O[C@H](COP(=O)(O)OP(=O)(O)OP(=O)(O)O)[C@@H](O)[C@H]3O)c(=O)c2c1	26			
CSc1cc2ccn([C@@H]3O[C@H](COP(=O)(O)OP(=O)(O)OP(=O)(O)O)[C@@H](O)[C@H]3O)c(=O)c2cc1F	3	> 20000	> 20000	> 20000
O=c1c2cccnc2ccn1[C@@H]1O[C@H](COP(=O)(O)OP(=O)(O)OP(=O)(O)O)[C@@H](O)[C@H]1O	35			
O=c1ccn([C@@H]2O[C@H](COP(=O)(O)OP(=O)(O)OP(=O)(O)OP(=O)(O)OC[C@H]3O[C@@H](n4ccc(=O)[nH]c4=O)[C@H](O)[C@@H]3O)[C@@H](O)[C@H]2O)c(=O)[nH]1 [DIQUAFOSOL]			> 20000	
O=c1ccn([C@@H]2O[C@H](COP(=O)(O)OP(=O)(O)OP(=O)(O)O)[C@@H](O)[C@H]2O)c(=O)[nH]1 [URIDINE TRIPHOSPHATE]	7	39	> 2000	424
